In patent US20070219348A1, “Mutations in the mineralocorticoid receptor ligand binding domain polypeptide that permit structural determination of low affinity ligand complexes and screening methods employing same” (priority 2006, published 2007):
Residue numbers refer to the chain shown, from its start. Read-outs that look alike come from different tables or passages of the source.

How the values were obtained:
Reporter Alone = assay: Ligand binding affinities on MR constructs (Table 1), Reporter Alone; conditions: read-out: IC50 binding affinity, Reporter Alone
Description: (§1) As used herein, the terms “weakly binding ligand” and “weak ligand” are used interchangeably and mean a ligand that binds a receptor with low affinity. The binding strength of a ligand to a receptor can be experimentally measured using any of several procedures, as is generally known in the art. In some embodiments of the presently disclosed subject matter, ligand binding is measured using a competitive binding assay in which a ligand of interest competes with a labeled ligand for binding to a receptor. […] This quantitative measurement can be expressed as an IC50 value. Therefore, the greater the IC50 value of a ligand, the lower the binding affinity the ligand has for the receptor.
(§2) Cortisol has a hydroxyl attached to C11, where cortisone has a ketone.

Wild type MR = target: T1, Wild type MR (Homo sapiens, UniProt P08235); assay: Ligand binding affinities on MR constructs (Table 1), wild type MR
T1 sequence (P08235 1-984): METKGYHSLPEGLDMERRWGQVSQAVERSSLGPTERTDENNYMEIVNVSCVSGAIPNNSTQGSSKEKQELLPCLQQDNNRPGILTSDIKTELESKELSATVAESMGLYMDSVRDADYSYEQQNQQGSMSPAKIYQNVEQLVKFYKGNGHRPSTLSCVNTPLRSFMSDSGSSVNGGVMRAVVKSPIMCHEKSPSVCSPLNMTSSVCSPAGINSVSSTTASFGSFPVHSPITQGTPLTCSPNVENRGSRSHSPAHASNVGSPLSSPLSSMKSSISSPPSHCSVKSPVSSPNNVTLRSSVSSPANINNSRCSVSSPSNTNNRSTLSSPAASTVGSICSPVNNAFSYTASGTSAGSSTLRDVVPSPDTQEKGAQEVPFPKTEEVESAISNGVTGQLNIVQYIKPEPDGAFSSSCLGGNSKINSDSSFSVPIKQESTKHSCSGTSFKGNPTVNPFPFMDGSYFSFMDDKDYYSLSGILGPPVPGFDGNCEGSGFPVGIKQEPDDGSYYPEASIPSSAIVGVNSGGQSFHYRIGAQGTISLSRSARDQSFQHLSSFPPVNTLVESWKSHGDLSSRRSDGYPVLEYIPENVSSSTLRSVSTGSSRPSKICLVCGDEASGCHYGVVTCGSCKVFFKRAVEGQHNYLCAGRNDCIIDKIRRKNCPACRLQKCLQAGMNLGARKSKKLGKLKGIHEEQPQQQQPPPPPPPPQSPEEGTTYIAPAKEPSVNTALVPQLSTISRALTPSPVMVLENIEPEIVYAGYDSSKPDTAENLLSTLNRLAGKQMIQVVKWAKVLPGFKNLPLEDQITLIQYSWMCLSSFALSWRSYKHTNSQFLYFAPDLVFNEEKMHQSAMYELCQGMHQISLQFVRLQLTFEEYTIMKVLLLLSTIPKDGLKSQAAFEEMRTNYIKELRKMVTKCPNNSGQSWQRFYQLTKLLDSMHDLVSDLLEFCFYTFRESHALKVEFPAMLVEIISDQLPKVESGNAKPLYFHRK
Description: as §1, §2

MR S810L = target: T2, MR S810L (Homo sapiens, UniProt P08235, S810L); assay: Ligand binding affinities on MR constructs (Table 1), MR S810L; conditions: read-out: IC50 binding affinity, MR S810L
T2 sequence (P08235 1-984 S810L): T1 sequence (P08235 1-984) with S810L
Description: as §1, §2

MR = target: T3, MR (Homo sapiens, UniProt P08235); conditions: Quinkler & Stewart, 2003; cited from earlier work
T3 sequence (P08235 1-984): T1 sequence (P08235 1-984)

[1] = target: the molecule itself; assay: X-ray crystal structure of native MR LBD with deoxycorticosterone (crystal contact)

Molecule: C[C@]12CCC(=O)C=C1CC[C@@H]1[C@@H]2[C@@H](O)C[C@]2(C=O)[C@@H](C(=O)CO)CC[C@@H]12 [Aldosterone, aldosterone]
- IC50 (Reporter Alone; in uM): > 10 µM

Molecule: C[C@]12CCC(=O)C=C1CC[C@@H]1[C@@H]2[C@@H](O)C[C@@]2(C)[C@H]1CC[C@]2(O)C(=O)CO [Cortisol, cortisol]
- IC50 (Reporter Alone; cells printed in nM): 0.785 µM
- IC50 (Wild type MR; Wild type MR, cells printed in nM, read-out: IC50 binding affinity, Wild type MR): 21 nM
- IC50 (MR S810L): 20 nM
- binding affinity for MR in words (MR): low nM binder

Molecule: C[C@]12CCC(=O)C=C1CC[C@@H]1[C@@H]2C(=O)C[C@@]2(C)[C@H]1CC[C@]2(O)C(=O)CO [Cortisone, cortisone]
- IC50 (Reporter Alone; in uM): > 10 µM
- IC50 (Wild type MR; Wild type MR, in uM, read-out: IC50 binding affinity, Wild type MR): > 10000 nM
- fold difference in IC50s between cortisone and cortisol (Wild type MR; wild type MR, transactivation assays): > 700 fold
- IC50 (Wild type MR; wild-type MR, read-out: IC50 binding affinity, wild-type MR): > 10000 nM
- IC50 (MR S810L): 20 nM
- binding affinity for MR in words (MR): micromolar binder

Molecule: CC(=O)[C@H]1CC[C@H]2[C@@H]3CCC4=CC(=O)CC[C@]4(C)[C@H]3CC[C@]12C [Progesterone, progesterone]
- IC50 (Reporter Alone; in uM): > 10 µM

Molecule: CC(=O)S[C@@H]1CC2=CC(=O)CC[C@]2(C)[C@H]2CC[C@@]3(C)[C@@H](CC[C@@]34CCC(=O)O4)[C@H]12 [Spironolactone, spironolactone]
- IC50 (Reporter Alone; cells printed in nM): 0.0036 µM

B1: Native (wild type) MR LBD (amino acids 712-984) (receptor)
chain: APAKEPSVNTALVPQLSTISRALTPSPVMVLENIEPEIVYAGYDSSKPDTAENLLSTLNRLAGKQMIQVVKWAKVLPGFKNLPLEDQITLIQYSWMCLSSFALSWRSYKHTNSQFLYFAPDLVFNEEKMHQSAMYELCQGMHQISLQFVRLQLTFEEYTIMKVLLLLSTIPKDGLKSQAAFEEMRTNYIKELRKMVTKCPNNSGQSWQRFYQLTKLLDSMHDLVSDLLEFCFYTFRESHALKVEFPAMLVEIISDQLPKVESGNAKPLYFHRK
notes: Crystallized with deoxycorticosterone; the final model holds residues 727-908 and 914-984; also called native MR; WT MR
- binding result [1]: binds
